Data on three compounds can be found in patent publication US11998544B2, “Methods of using splicing modulators” (EISAI R&D MANAGEMENT CO., LTD., priority 2018, dated 2024).

One data set concerns CT26 syngeneic tumors. Description: Efficacy study, mouse colon cancer syngeneic model (CT26). The data set is classed as in vivo. Particulars: Balb/c mice with CT26 tumors; Compound 1 at any dose level or schedule; FIG. 1A. The protocol:
Efficacy Study Protocol: Mouse Colon Cancer Syngeneic Model
CT26 colon cancer cells (0.25×10^6; ATCC Cat # CRL-2638) were implanted subcutaneously into the right flank of eight-week old female Balb/c mice (Envigo) in 100 μL of PBS lacking matrigel. CT26 tumors were allowed to grow to an average of ˜100 mm^3 before animals were enrolled onto the efficacy study. Each treatment group contained 12 mice. Mice were treated with Compound 1, an anti-CTLA4 antibody (Bio X Cell Catalog Number: BE0164 (αCTLA4 9D9)), or a combination at doses and routes of administration as shown in FIG. 1. Compound 1 was formulated in a composition containing 5% ethanol and 95% methylcellulose solution (0.5% methylcellulose. The anti-CTLA4 antibody was formulated in phosphate buffer solution at pH 7.0. Tumors were measured 3 times per week for up to 19 days. Tumor volumes were calculated using the ellipsoid formula: Tumor Volume=(length×width^2)/2

The subject of the next data set is SF3b1 mutant cell lines. As to conditions: previously shown, U.S. Pat. No. 9,481,669 B2 and PCT/US2016/062525, cited from earlier work.
The conditions of data set [1]: in vivo; cited from earlier work.

Turning to `C/C(=C\C=C\[C@@H](C)c1ccccn1)[C@H]1OC(=O)C[C@H](O)CC[C@@](C)(O)[C@@H](OC(=O)N2CCN(C)CC2)/C=C/[C@@H]1C` [Compound 1, (2S,3S,6S,7R,10R,E)-7,10-dihydroxy-3,7-dimethyl-12-oxo-2-((R,2E,4E)-6-(pyridin-2-yl)hepta-2,4-dien-2-yl)oxacyclododec-4-en-6-yl 4-methylpiperazine-1-carboxylate], the “antitumor activity (growth curves compared to vehicle treated controls)” value in the data set on CT26 syngeneic tumors was “did not result in noticeable antitumor activity”. The cellular lethality result with SF3b1 mutant cell lines (SF3b1 mutant cell lines) is reported as “cellular lethality in SF3b1 mutant cell lines”. For the same compound, the splicing modulator activity result with SF3b1 mutant cell lines is given as “demonstrate splicing modulator activity”.

For the compound “Ipilimumab: fully human anti-CTLA4 antibody, an IgG1”, the plasma half-life in data set [1] is 12 to 14 days.

Turning to “tremelimumab: fully human anti-CTLA4 antibody, an IgG2”, in data set [1], the plasma half-life result is “approximately 22 days”.
